Test results published in the supplement of paper PMC10307832.

Legend:
Experiment in all cases: relative viability (nuclei count vs DMSO), 5 days (fraction); higher = more cells survive
Wnt-C59 + Bortezomib = compound: CC1=NC=CC(=C1)C2=CC=C(C=C2)CC(=O)NC3=CC=C(C=C3)C4=CN=CC=C4 [Wnt-C59] + CC(C)C[C@H](NC(=O)[C@H](Cc1ccccc1)NC(=O)c1cnccn1)B(O)O [Bortezomib] (partner 0.002 µM)
How it was run: (§1)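 Relative viability is defined as nuclei in treated wells over nuclei in vehicle wells. Duplicate plates were run and medians reported. Lung cancer cell lines in 1536-well plates were dosed by pin tool one day after seeding, with one drug or with a fixed anchor-drug dose plus five library-drug doses (not always all listed) in √10 steps, and nuclei were counted after 5 days.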

Lapatinib + Crizotinib = compound: CS(=O)(=O)CCNCc1ccc(-c2ccc3ncnc(Nc4ccc(OCc5cccc(F)c5)c(Cl)c4)c3c2)o1 [Lapatinib] + C[C@@H](Oc1cc(-c2cnn(C3CCNCC3)c2)cnc1N)c1c(Cl)ccc(F)c1Cl [Crizotinib] (partner 1 µM)
How it was run: as §1

Wnt-C59 + AZD7762 = compound: CC1=NC=CC(=C1)C2=CC=C(C=C2)CC(=O)NC3=CC=C(C=C3)C4=CN=CC=C4 [Wnt-C59] + NC(=O)Nc1cc(-c2cccc(F)c2)sc1C(=O)N[C@H]1CCCNC1 [AZD7762] (partner 0.2 µM)
How it was run: as §1

Lapatinib + Olaparib = compound: CS(=O)(=O)CCNCc1ccc(-c2ccc3ncnc(Nc4ccc(OCc5cccc(F)c5)c(Cl)c4)c3c2)o1 [Lapatinib] + O=C(c1cc(Cc2n[nH]c(=O)c3ccccc23)ccc1F)N1CCN(C(=O)C2CC2)CC1 [Olaparib] (partner 8 µM)
How it was run: as §1

Row | Cell Line | relative viability (Wnt-C59 + Bortezomib; first compound 0.001 µM) | relative viability (Wnt-C59 + Bortezomib; first compound 0.01 µM) | relative viability (Wnt-C59 + Bortezomib; first compound 0.03162 µM) | relative viability (Wnt-C59 + Bortezomib; first compound 0.1 µM) | relative viability (Lapatinib + Crizotinib; first compound 0.02 µM) | relative viability (Lapatinib + Crizotinib; first compound 0.06325 µM) | relative viability (Lapatinib + Crizotinib; first compound 0.2 µM) | relative viability (Lapatinib + Crizotinib; first compound 0.6325 µM) | relative viability (Lapatinib + Crizotinib; first compound 2 µM) | relative viability (Wnt-C59 + AZD7762; first compound 0.001 µM) | relative viability (Wnt-C59 + AZD7762; first compound 0.01 µM) | relative viability (Wnt-C59 + AZD7762; first compound 0.03162 µM) | relative viability (Wnt-C59 + AZD7762; first compound 0.1 µM) | relative viability (Lapatinib + Olaparib; first compound 0.02 µM) | relative viability (Lapatinib + Olaparib; first compound 0.06325 µM) | relative viability (Lapatinib + Olaparib; first compound 0.2 µM) | relative viability (Lapatinib + Olaparib; first compound 0.6325 µM) | relative viability (Lapatinib + Olaparib; first compound 2 µM)
1 | NCI-H1755 | 0.974 | 0.88 | 0.929 | 0.948 | 0.851 | 0.82 | 0.899 | 0.818 | 0.809 | 0.498 | 0.433 | 0.436 | 0.473 | 0.855 | 0.837 | 0.885 | 0.882 | 0.815
2 | COR-L 105 | 0.579 | 0.772 | 0.685 | 0.662 | 0.727 | 0.635 | 0.639 | 0.58 | 0.279 | – | – | – | – | 0.603 | 0.657 | 0.647 | 0.669 | 0.406
3 | NCI-H358 | – | – | – | – | 0.577 | – | 0.523 | 0.363 | 0.26 | 0.448 | 0.582 | 0.588 | 0.617 | 0.535 | 0.476 | 0.385 | 0.377 | 0.205
4 | NCI-H1944 | – | – | – | – | – | – | 0.811 | 0.808 | 0.56 | 0.474 | 0.482 | 0.452 | 0.534 | 0.397 | 0.389 | 0.381 | 0.354 | 0.327
5 | SK-LU-1 | 1.15 | 1.23 | 1.28 | 1.45 | – | 0.814 | 0.992 | 1.07 | 0.859 | – | – | – | – | 0.298 | 0.449 | 0.565 | 0.555 | 0.433
6 | NCI-H661 | 0.616 | 0.758 | 0.903 | 0.805 | 0.979 | 1.15 | 1.29 | 1.05 | 0.762 | – | – | – | – | 0.663 | 0.72 | 0.708 | 0.631 | 0.545
7 | SW 1573 | 1.04 | 1.1 | 1.11 | 1.04 | 0.762 | 0.724 | 0.856 | 0.829 | 0.623 | – | – | – | – | 0.401 | 0.443 | 0.519 | 0.444 | 0.522
8 | A549 | – | – | – | – | 0.735 | 0.675 | 0.73 | 0.674 | 0.616 | – | – | – | – | – | 0.217 | 0.376 | 0.364 | 0.269
9 | NCI-H2228 | 1.07 | 0.746 | 1.07 | 0.855 | 0.603 | 0.342 | 0.462 | 0.379 | 0.297 | – | – | – | – | 0.562 | 0.537 | 0.728 | 0.482 | 0.436
10 | NCI-H2023 | 0.979 | 1.1 | 1.05 | 0.821 | 0.539 | 0.419 | 0.491 | 0.633 | 0.281 | – | – | – | – | 0.435 | 0.455 | 0.436 | 0.444 | 0.397
11 | NCI-H2009 | 1.07 | 1.06 | 1.03 | 0.993 | 1.09 | 1.05 | 1.05 | 1.03 | 0.959 | – | – | – | – | 0.666 | 0.712 | 0.694 | 0.696 | 0.567
12 | NCI-H1299 | 1.02 | 1.06 | 1.02 | 1.01 | 0.952 | 1.03 | 0.893 | 0.944 | 0.916 | – | – | – | – | 0.952 | 0.99 | 0.93 | 0.967 | 0.965
13 | NCI-H2342 | – | – | – | – | – | – | – | – | – | 0.525 | 0.498 | 0.495 | 0.457 | 0.406 | 0.405 | 0.398 | 0.433 | 0.348
14 | SW 900 | – | – | – | – | – | – | – | – | – | 0.602 | 0.615 | 0.555 | 0.562 | – | 0.78 | 0.574 | 0.864 | 0.56
15 | NCI-H1395 | – | – | – | – | – | – | – | – | – | 0.39 | 0.383 | 0.426 | 0.389 | – | 0.455 | 0.459 | 0.522 | 0.415
16 | NCI-H1650 | 0.21 | 0.219 | 0.205 | 0.219 | 0.977 | 0.795 | 0.854 | 0.9 | 0.596 | – | – | – | – | 0.73 | 0.847 | 0.767 | 0.802 | 0.621
17 | LK-2 | – | – | – | – | – | – | 0.253 | 0.217 | 0.245 | 0.417 | 0.407 | 0.486 | 0.461 | 0.598 | – | 0.78 | 0.702 | 0.859
18 | SK-MES-1 | – | – | – | – | 0.95 | 0.974 | 1.08 | 0.806 | 0.731 | – | – | – | – | 0.726 | 0.699 | 0.569 | 0.464 | 0.221
19 | COR-L23 | 1.02 | 0.944 | 0.912 | 0.95 | 0.71 | 0.676 | 0.697 | 0.602 | 0.581 | – | – | – | – | 0.329 | 0.358 | 0.33 | 0.309 | 0.275
20 | NCI-H1563 | 0.863 | 0.917 | 0.901 | 0.835 | 0.881 | 0.874 | 0.861 | 0.789 | 0.774 | – | – | – | – | – | – | – | – | –
21 | EBC-1 | 0.638 | 0.617 | 0.394 | 0.591 | 0.181 | 0.179 | 0.178 | 0.174 | 0.18 | – | – | – | – | 0.736 | 0.78 | 0.703 | 0.759 | 0.489
